This assay deals with MDA-MB-435 tumor-bearing mice. In words: Small animal PET, organ uptake in orthotopic MDA-MB-435 tumor-bearing mice. It counts as in vivo, athymic nude mice. The following applies: co-injection with excess (0.5 μmol, 300 μg) c(RGDfk), 0.5 h.

Results on one substance are retold here after article PMC3059404 (Bioconjugate chemistry, 2011).

Consider “4-^18F-fluoro-3-trifluoromethylbenzoyl-E[c(RGDfk)2] [^18F-4]”, for which the “reduction of tumor uptake by blocking” value is listed as 82%.
